Tests used:
[1] = system: depressions, lethargy and physical feebleness; blood pressure; assay: Case 6:  two; assay type: in vivo, person
Description: Both they themself and their family noticed these improvements.

[2] = system: migraines; pain during menstruation; assay: Case 2:  four with migraines and menstrual pain; assay type: in vivo, person
[3] = system: depressions, lethargy and physical feebleness; assay: Case 4: postmenopausal person seven; assay type: in vivo; conditions: daily dose of 1 to 4 g
Description: The improvements were also noticed by their family.

PMS = assay: Case 7:  six with PMS; assay type: in vivo, person; conditions: average daily dose of 5 g

## CN(CC(=O)O)C(=N)N.O [creatine monohydrate]
[1]; combined with an antihypertensive agent, previously severely hypertonic (sys up to 270)
  blood pressure: returned to normal
[1]; daily dose of 1 to 5 g
  motivation (lethargy): unexpected new motivation
  spirits (depressions): rise in spirits
  strength (physical feebleness): increase in strength
[2]; daily dose of 1.5 g, even under extreme conditions
  migraine attacks provoked by heat or bodily or mental exertion: able to prevent the attacks

## creatine ascorbate
[3]
  motivation (lethargy): unexpectedly motivated
  spirits (depressions): rise in spirits
  strength (physical feebleness): gained in strength

## creatine pyruvate
[2]; dose not stated
  pain during menstruation: able to stop the pain
PMS
  abdominal pain: no longer suffered
  physical complaints of PMS: complete relief
  tenderness and swelling of the breast: no longer suffered

Source: patent publication US6503951B2, “Use of creatine and/or creatine derivatives for treating typical disorders in women” (SKW Trostberg Aktiengesellschaft, priority 1999, dated 2003)
